Test results from ChEMBL document CHEMBL5357005, “Discovery and Heterologous Production of Tetrapetalones Provide Insights into the Formation of the Tetracyclic System” (J Nat Prod, 2024).
Active and inactive are the calls of the source.

How the values were obtained:
[1] = test system: Staphylococcus aureus; experiment: Antimicrobial activity against Staphylococcus aureus ATCC 25923 assessed as reduction in microbial growth measured for 24 hrs by paper disc diffusion method; format: functional, organism-based
[2] = test system: Pseudomonas aeruginosa; experiment: Antimicrobial activity against Pseudomonas aeruginosa PA01 assessed as reduction in microbial growth measured for 24 hrs by paper disc diffusion method; format: functional, organism-based
[3] = test system: Salmonella typhimurium; experiment: Antimicrobial activity against Salmonella enterica subsp. enterica serovar Typhimurium assessed as reduction in microbial growth measured for 24 hrs by paper disc diffusion method; format: functional, organism-based
[4] = test system: Candida albicans; experiment: Antifungal activity against Candida albicans 5314 assessed as reduction in microbial growth measured for 48 hrs by paper disc diffusion method; format: functional, organism-based
[5] = test system: SW480; experiment: Cytotoxicity against human SW480 cells assessed as reduction in cell viability at 50 uM by sulfonyl rhodamine B colorimetry analysis; format: functional, cell-based
[6] = test system: HCT-116; experiment: Cytotoxicity against human HCT-116 cells assessed as reduction in cell viability at 50 uM by sulfonyl rhodamine B colorimetry analysis; format: functional, cell-based

Measured: Activity

CC1=C[C@@]2(C)C(O)=C(C)C(=O)N2C2=CC(=O)C=C3[C@@H](O[C@H]4O[C@H](C)[C@@H](O)[C@H](O)[C@@H]4O)[C@H](C)[C@@H]1[C@]32O
inactive: all assays above

CC1=C[C@@]2(C)C(O)=C(C)C(=O)N2C2=CC(=O)C=C3[C@@H](O)[C@H](C)[C@@H]1[C@]32O
inactive: all assays above

CC[C@@]12C=C(C)[C@@H]3[C@@H](C)[C@H](O[C@H]4O[C@H](C)[C@@H](O)[C@H](O)[C@@H]4O)C4=CC(=O)C=C(N1C(=O)C(C)=C2O)[C@@]43O
inactive: all assays above

CC1=C[C@@]2(CO)C(O)=C(C)C(=O)N2C2=CC(=O)C=C3[C@@H](O[C@@H]4CC[C@H](O)[C@H](C)O4)[C@H](C)[C@@H]1[C@]32O
inactive: all assays above

CC1=C[C@@]2(C)C(O)=C(C)C(=O)N2C2=CC(=O)C=C3[C@@H](O[C@@H]4CC[C@H](O)[C@H](C)O4)[C@H](C)[C@@H]1[C@]32O
inactive: all assays above

CC1=C[C@H]2C(O)=C(C)C(=O)N2C2=CC(=O)C=C3[C@@H](O[C@@H]4CC[C@H](O)[C@H](C)O4)[C@H](C)[C@@H]1[C@]32O
inactive: all assays above

CC[C@@]12C=C(C)[C@@H]3[C@@H](C)[C@H](O)C4=CC(=O)C=C(N1C(=O)C(C)=C2O)[C@@]43O
inactive: all assays above

CC[C@@]12C=C(C)[C@@H]3[C@@H](C)[C@H](O[C@@H]4CC[C@H](O)[C@H](C)O4)C4=CC(=O)C=C(N1C(=O)C(C)=C2O)[C@@]43O
inactive: all assays above
